Measurements as given in patent US12234230B2, “Substituted benzyl-triazole compounds for Cbl-b inhibition, and further uses thereof” (Nurix Therapeutics, Inc., priority 2019, dated 2025).

Tests used:
Cbl-b [1] = molecular target: T1, Cbl-b (Homo sapiens (Human), UniProt Q13191); experiment: Cbl-b displacement assay (Cbl-b inhibition assay), Biological Example 11; format: binding; settings: 0.125 nM Cbl-b final concentration (Low); Table 11-1
Method: (§1) Candidate compounds were evaluated for their ability to bind and inhibit Cbl-b, an E3 ubiquitin-protein ligase, as evidenced by their ability to displace a fluorophore-labeled probe bound to Cbl-b.
(§2) The ability of candidate compounds to displace a known inhibitor and thereby inhibit Cbl-b activity was measured by monitoring the interaction of Cbl-b with a fluorophore-labeled probe in the presence of the candidate compound.
(§3) Fluorescently-labeled inhibitor probe was synthesized and tagged with BODIPY FL. […] Following the one hour incubation, the plates were read for TR-FRET signal at 520/620 nm using an Envision plate reader (Perkin Elmer).
(§4) The resulting data for the Cbl-b activity assays were analyzed using standard methods to determine the IC50 values for the tested compounds.

[2] = system: primary human total T-cells; experiment: Primary human total T-cell activation (IL-2 secretion, CD25 surface staining), Biological Example 9; settings: fold change over baseline, Table 9-1; for IL-2 secretion CD3/CD28 0.3 μM: 0.3 μM inhibitor; for IL-2 secretion CD3/CD28 0.3 μM / IL-2 secretion CD3/CD28 1 μM: anti-CD3 and anti-CD28 co-stimulation; for IL-2 secretion CD3/CD28 1 μM / IL-2 secretion CD3 1 μM: 1 μM inhibitor
Method: Peripheral blood mononuclear cells (PBMC) were obtained either: 1) by using Ficoll-Paque™ (GE Healthcare) for separation of peripheral blood hematopoietic cells from buffy coats of healthy human donors; or 2) directly from LeukoPak donations. […] The cells were rested overnight at 37° C. 5% CO2. The Cbl-inhibitor was added to 1×10^5 cells per well and the plate was incubated for one hour at 37° C. in 5% CO2 at the concentrations indicated (Table 9-1) with a final DMSO concentration of <0.1%. For samples stimulated with anti-CD3 antibody and anti-CD28 antibody (anti-CD3/anti-CD28), the Cbl-b inhibitor concentrations tested were 1 μM, and 0.3 μM. For samples stimulated with anti-CD3 antibody alone (anti-CD3), the Cbl-b inhibitor concentrations tested were 3 μM, and 1 μM. […] To prepare plates with plate bound anti-CD3 antibody (OKT3), 96-well round bottom tissue culture plates were coated with 100 μL of anti-CD3 antibody (OKT3) at 10 μg/mL for 4 hours at 37° C. 5% CO2 in phosphate buffered saline (PBS). […] Cells were stimulated for 48 hours prior to harvesting the cell free supernatant and staining the cell population for surface marker assessment by flow cytometry. Supernatants were analyzed for cytokine secretion, including IL-2 by ELISA (R&D Systems, Peprotech or Life Technologies) or Luminex multiplex kits (Procarta Life Technologies) following the manufacturer's protocol. Cells were stained with anti-CD25 antibody (BD Biosciences) to assess levels of surface marker of activation.
Readouts were reported as fold change over baseline. Baseline for this study was the measurement obtained from total human T-cells stimulated with anti-CD3 antibody and with soluble anti-CD28 antibody, wherein the cells were not incubated with a Cbl-b inhibitor (Table 9-1). […] For T-cells stimulated with anti-CD3 alone, changes greater than 0.1-fold over baseline for IL-2 secretion and greater than 0.6-fold over baseline for CD25 surface staining were considered significant and a positive response.

[3] = system: primary human total T-cells; experiment: Primary human total T-cell activation (IL-2 secretion, CD25 surface staining), Biological Example 12; settings: fold change over baseline, Table 12-1; for IL-2 secretion CD3/CD28 0.3 μM: 0.3 μM inhibitor; for IL-2 secretion CD3/CD28 0.3 μM / IL-2 secretion CD3/CD28 1 μM: anti-CD3 and anti-CD28 co-stimulation; for IL-2 secretion CD3/CD28 1 μM / IL-2 secretion CD3 1 μM: 1 μM inhibitor
Method: Peripheral blood mononuclear cells (PBMC) were obtained either: 1) by using Ficoll-Paque™ (GE Healthcare) for separation of peripheral blood hematopoietic cells from buffy coats of healthy human donors; or 2) directly from LeukoPak donations. […] The cells were rested overnight at 37° C. 5% CO2. The Cbl-inhibitor was added to 1×10^5 cells per well and the plate was incubated for one hour at 37° C. in 5% CO2 at the concentrations indicated (Table 12-1) with a final DMSO concentration of <0.1%. For samples stimulated with anti-CD3 antibody and anti-CD28 antibody (anti-CD3/anti-CD28), the Cbl-b inhibitor concentrations tested were 1 μM, and 0.3 μM. For samples stimulated with anti-CD3 antibody alone (anti-CD3), the Cbl-b inhibitor concentrations tested were 3 μM, and 1 μM. […] To prepare plates with plate bound anti-CD3 antibody (OKT3), 96-well round bottom tissue culture plates were coated with 100 μL of anti-CD3 antibody (OKT3) at 10 μg/mL for 4 hours at 37° C. 5% CO2 in phosphate buffered saline (PBS). […] Cells were stimulated for 48 hours prior to harvesting the cell free supernatant and staining the cell population for surface marker assessment by flow cytometry. Supernatants were analyzed for cytokine secretion, including IL-2 by ELISA (R&D Systems, Peprotech or Life Technologies) or Luminex multiplex kits (Procarta Life Technologies) following the manufacturer's protocol. Cells were stained with anti-CD25 antibody (BD Biosciences) to assess levels of surface marker of activation.
Readouts were reported as fold change over baseline. Baseline for this study was the measurement obtained from total human T-cells stimulated with anti-CD3 antibody and with soluble anti-CD28 antibody, wherein the cells were not incubated with a Cbl-b inhibitor (Table 12-1). […] For T-cells stimulated with anti-CD3 alone, changes greater than 0.1-fold over baseline for IL-2 secretion and greater than 0.6-fold over baseline for CD25 surface staining were considered significant and a positive response.

[4] = system: primary human total T-cells; experiment: Primary human total T-cell activation (IL-2 secretion, CD25 surface staining), Biological Example 2; settings: fold change over baseline; for CD25 staining CD3/CD28 0.3 μM / IL-2 secretion CD3/CD28 0.3 μM: 0.3 μM inhibitor; for CD25 staining CD3/CD28 0.3 μM / IL-2 secretion CD3/CD28 0.3 μM / CD25 staining CD3/CD28 1 μM / IL-2 secretion CD3/CD28 1 μM: anti-CD3 and anti-CD28 co-stimulation; for CD25 staining CD3/CD28 1 μM / IL-2 secretion CD3/CD28 1 μM / CD25 staining CD3 1 μM / IL-2 secretion CD3 1 μM: 1 μM inhibitor; for CD25 staining CD3 1 μM / IL-2 secretion CD3 1 μM / CD25 staining CD3 3 μM / IL-2 secretion CD3 3 μM: anti-CD3 stimulation alone; for CD25 staining CD3 3 μM / IL-2 secretion CD3 3 μM: 3 μM inhibitor
Cbl-b [5] = molecular target: T1, Cbl-b; experiment: Cbl-b displacement assay (Cbl-b inhibition assay), Biological Example 1; format: binding
Method: as §2
Following the one hour incubation, the plates were read for TR-FRET signal at 520/620 nm using an Envision plate reader (Perkin Elmer).

Cbl-b [6] = molecular target: T1, Cbl-b; experiment: Cbl-b displacement assay (Cbl-b inhibition assay), Biological Example 8; format: binding; settings: 0.125 nM Cbl-b final concentration (Low); Table 8-1
Method: as §1, §2, §3, §4

[7] = system: colon carcinoma CT26 tumor cells; settings: 30 mg/kg PO daily D8 to D28; CT26 tumors on both flanks; compared to vehicle control
Method: Mice were implanted with 100,000 colon carcinoma CT26 tumor cells on both flanks of the mice. […] Treatments were continued daily until Day Twenty Eight (D28). […] A group of mice received an oral vehicle (0.5% Methylcellulose, 0.2% Polysorbate 80). Tumor growth inhibition (TGI) was calculated as follows: (1−(median tumor volume of drug treated group/median tumor volume of vehicle treated group))×100.

TC-1 cells = experiment: TC-1 syngeneic mouse model, vaccine combination, Biological Example 15; format: in vivo; settings: Compound 23 orally D13 to D47 in combination with HPV16 vaccine s.c. at D13 and D20; TC-1 tumor bearing mice
Method: Mice were implanted with 50,000 TC-1 cells/mouse subcutaneously into the right flank at Day Zero (DO). Thirteen days later (D13), when tumors measured approximately 50-100 mm^3, mice from appropriate groups (15 mice per group) were injected with HPV16 vaccine (s.c., total 2 doses, at D13 and Day 20 (D20)). […] Mice were euthanized when tumor exceeded 1500-2000 mm^3, according to IACUC guidelines. Survival was compared using GraphPad Prism using log-rank (Mantel-Cox) test. **=p<0.001 of treatment vs. Vehicle+Vaccine control group at Day 61.
TC-1 cells were derived by stable transfection of mouse lung epithelial cells with human papillomavirus strain 16 (HPV16) early proteins 6 and 7 (E6 and E7) and activated h-ras oncogene. Cells were obtained from Dr. T-C Wu (Johns Hopkins University). (Lin K Y, Guarnieri F G, Staveley-O'Carroll K F, Levitsky H I, August J T, Pardoll D M, et al. Treatment of established tumors with a novel vaccine that enhances major histocompatibility class II presentation of tumor antigen. Cancer Res 1996; 56:21-6).
The HPV16 vaccine was prepared as follows: The CTL epitope from HPV16 E749-57 (9 amino acid (aa) peptide, […], 100 μg/mouse, SEQ ID NO: 2) was mixed with synthetic T helper epitope PADRE (13 aa peptide, aK-Cha-[…]a, SEQ ID NO: 3, where “a” is D-alanine and Cha is L-cyclohexylalanine, 20 μg/mouse) and with QuilA adjuvant (20 ug/mouse).

[8] = 0.125 nM Cbl-b final concentration (Low), read-out: Cbl-b activity IC50 (Low)
[9] = 3 μM inhibitor, anti-CD3 stimulation alone

T1 sequence (Q13191 36-427): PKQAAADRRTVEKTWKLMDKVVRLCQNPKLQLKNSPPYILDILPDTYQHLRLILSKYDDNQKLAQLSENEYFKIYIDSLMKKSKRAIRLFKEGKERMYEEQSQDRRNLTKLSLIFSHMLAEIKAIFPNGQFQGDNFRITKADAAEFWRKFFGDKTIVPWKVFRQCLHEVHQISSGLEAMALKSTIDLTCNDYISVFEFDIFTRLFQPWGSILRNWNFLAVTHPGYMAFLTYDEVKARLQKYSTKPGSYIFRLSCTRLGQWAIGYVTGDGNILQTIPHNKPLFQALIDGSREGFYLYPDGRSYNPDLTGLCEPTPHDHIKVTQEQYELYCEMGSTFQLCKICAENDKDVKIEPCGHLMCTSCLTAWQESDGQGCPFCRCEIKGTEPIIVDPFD

| Compound | IC50 (Cbl-b [1]) | IL-2 secretion CD3/CD28 0.3 μM [2] | IL-2 secretion CD3/CD28 1 μM [2] | IL-2 secretion CD3/CD28 0.3 μM [3] | IL-2 secretion CD3/CD28 1 μM [3] | CD25 staining CD3/CD28 0.3 μM [4] | IL-2 secretion CD3/CD28 0.3 μM [4] | CD25 staining CD3/CD28 1 μM [4] | IL-2 secretion CD3/CD28 1 μM [4] | IC50 (Cbl-b [5]; [8]) | IC50 (Cbl-b [6]) | IL-2 secretion CD3 1 μM ([2]; anti-CD3 stimulation alone) | IL-2 secretion CD3 3 μM [2, 9] | IL-2 secretion CD3 1 μM ([3]; anti-CD3 stimulation alone) | IL-2 secretion CD3 3 μM [3, 9] | CD25 staining CD3 1 μM [4] | IL-2 secretion CD3 1 μM [4] | CD25 staining CD3 3 μM [4] | IL-2 secretion CD3 3 μM [4] | also measured |
| --- | --- | --- | --- | --- | --- | --- | --- | --- | --- | --- | --- | --- | --- | --- | --- | --- | --- | --- | --- | --- |
| C[C@H]1CCCN(Cc2cc3c(c(C(F)(F)F)c2)CN(c2cccc([C@]4(c5nncn5C)C[C@@H](C)C4)c2)C3=O)C1 [Compound 23, 2-(3-((1s,3R)-3-methyl-1-(4-methyl-4H-1,2,4-triazol-3-yl)cyclobutyl)phenyl)-6-(((S)-3-methylpiperidin-1-yl)methyl)-4-(trifluoromethyl)isoindolin-1-one] | < 1 nM | A (A indicates >15 fold) | A (A indicates >15 fold) | A (A indicates >15 fold) | A (A indicates >15 fold) | B (B indicates 1.24-1.39 fold) | C (C indicates <20 fold) | B (B indicates 1.24-1.39 fold) | C (C indicates <20 fold) | < 5 nM | < 1 nM |  |  |  |  |  |  |  |  | Tumor growth inhibition (TGI) [7]: 68%; survival (TC-1 cells): prolonged survival; tumor progression (tumor volume) (TC-1 cells): significant slowdown of tumor progression |
| C[C@H]1CCCN(Cc2cc3c(c(C(F)(F)F)c2)CN(c2cccc(C4(c5nncn5C)CC5(CC5)C4)c2)C3=O)C1 [Compound 42, 6-[[(3S)-3-methyl-1-piperidyl]methyl]-2-[3-[5-(4-methyl-1,2,4-triazol-3-yl)spiro[2.3]hexan-5-yl]phenyl]-4-(trifluoromethyl)isoindolin-1-one] | < 1 nM | A (A indicates >15 fold) | A (A indicates >15 fold) | A (A indicates >15 fold) | A (A indicates >15 fold) | B (B indicates 1.24-1.39 fold) | B (B indicates 20-35 fold) | B (B indicates 1.24-1.39 fold) | A (A indicates >35 fold) | < 5 nM | < 1 nM | A (A indicates >0.66 fold) | A (A indicates >0.66 fold) | A (A indicates >0.66 fold) | A (A indicates >0.66 fold) | A (A indicates >2.5 fold) | A (A indicates >1.1 fold) | A (A indicates >2.5 fold) | A (A indicates >1.1 fold) |  |
| C[C@H]1CCCN(Cc2cc3c(c(C(F)(F)F)c2)CN(c2cccc([C@]4(c5nncn5C)C[C@@H](C#N)C4)c2)C3=O)C1 [Compound 38, (1R,3s)-3-(4-methyl-4H-1,2,4-triazol-3-yl)-3-(3-(6-(((S)-3-methylpiperidin-1-yl)methyl)-1-oxo-4-(trifluoromethyl)isoindolin-2-yl)phenyl)cyclobutane-1-carbonitrile] | 1 to 5 nM | A (A indicates >15 fold) | A (A indicates >15 fold) | A (A indicates >15 fold) | A (A indicates >15 fold) |  | B (B indicates 20-35 fold) |  | B (B indicates 20-35 fold) | < 5 nM | 1 to 5 nM | A (A indicates >0.66 fold) | A (A indicates >0.66 fold) | A (A indicates >0.66 fold) | A (A indicates >0.66 fold) | A (A indicates >2.5 fold) | A (A indicates >1.1 fold) | A (A indicates >2.5 fold) | B (B indicates 0.70-1.1 fold) |  |
| C[C@@H]1CN(Cc2cc3c(c(C(F)(F)F)c2)CN(c2cccc([C@H](c4nncn4C)C4CCC4)c2)C3=O)CCO1 [Compound 17, 2-(3-((R)-cyclobutyl(4-methyl-4H-1,2,4-triazol-3-yl)methyl)phenyl)-6-(((R)-2-methylmorpholino)methyl)-4-(trifluoromethyl)isoindolin-1-one] |  | B (B indicates 10-15 fold) | A (A indicates >15 fold) | B (B indicates 11-15 fold) | A (A indicates >15 fold) | B (B indicates 1.24-1.39 fold) | B (B indicates 20-35 fold) | B (B indicates 1.24-1.39 fold) | A (A indicates >35 fold) | < 5 nM |  | A (A indicates >0.66 fold) | A (A indicates >0.66 fold) | A (A indicates >0.66 fold) | A (A indicates >0.66 fold) | B (B indicates 1.5-2.5 fold) | A (A indicates >1.1 fold) | B (B indicates 1.5-2.5 fold) | A (A indicates >1.1 fold) | CD25 staining CD3 3 μM [2, 9]: B (B indicates 1.05-1.14 fold); CD25 staining CD3 3 μM [3, 9]: B (B indicates 1.05-1.14 fold) |
| C[C@H]1CCCN(Cc2cc3c(c(C(F)(F)F)c2)CN(c2cccc([C@H](c4nncn4C)C4CCC4)c2)C3=O)C1 [Compound 3, 2-(3-((R)-cyclobutyl(4-methyl-4H-1,2,4-triazol-3-yl)methyl)phenyl)-6-(((S)-3-methylpiperidin-1-yl)methyl)-4-(trifluoromethyl)isoindolin-1-one] | < 1 nM | A (A indicates >15 fold) | A (A indicates >15 fold) | A (A indicates >15 fold) | A (A indicates >15 fold) |  | A (A indicates >35 fold) |  | A (A indicates >35 fold) | < 5 nM | < 1 nM | A (A indicates >0.66 fold) | A (A indicates >0.66 fold) | A (A indicates >0.66 fold) | A (A indicates >0.66 fold) | A (A indicates >2.5 fold) | A (A indicates >1.1 fold) | A (A indicates >2.5 fold) | A (A indicates >1.1 fold) | IC50 (Cbl-b [5]; read-out: IC50 values in the Cbl-b inhibition assay of Biological Example 1): ≤ 5 nM |
